Results: patent US20220387620A1, “NANOSTRUCTURED DRUG DELIVERY SYSTEM AS A MULTIFUNCTIONAL PLATFORM FOR THERAPY” (priority 2019, published 2022)

Assays:
[1] = system: U-87 MG cells; assay: Resazurin cell viability / cytotoxicity assay; type: cell-based, human; conditions: free drug
Method: Regarding cell viability, U-87 MG cells were cultured in DMEM/F-12 medium, supplemented with 10% (v/v) FBS, 1% (v/v) penicillin-streptomycin solution and sodium bicarbonate. Cells were maintained at 37° C. in a humidified atmosphere containing CO2 (5%). The resazurin assay was used to determine the cytotoxicity of NLCs. Briefly, 2000 cells per well were seeded in a 96 well plate and incubated for 24 h or 72 h after the medium was replaced with increasing concentrations of free drugs or NLCs. Subsequently, the medium was removed and the cell viability determined. For this purpose, 100 μL of 10% (w/v) resazurin solution in DMEM/F 12 was added to the cells and incubated for approximately 2 h, at 37° C. The enzymatic reduction of resazurin to resorufin was analyzed by UV/Vis spectrophotometry at 570 nm and 600 nm. Cell viability was assessed indirectly according to equation 1.

[2] = system: human blood; assay: In vitro hemolytic activity (NCL ITA-1 protocol); type: cell-based; conditions: positive control, 3 h at 37° C.
Source text: The haemolytic behaviour of NLCs formulations was explored following the Nanotechnology Characterization Lab (NCL) protocol for analysis of Haemolytic Properties of Nanoparticles (NCL ITA-1 Version 1.2), with slight modifications. Briefly, fresh human blood was drawn from healthy participants in the Laboratory of Clinical Analysis of the Faculty of Pharmacy of the University of Coimbra, after a written informed consent was obtained from all individuals. The venous blood, collected in heparinised vacutainer tubes, was properly diluted in PBS to final a concentration of 10 mg/mL of total blood haemoglobin, and incubated with the NLCs at eight different concentrations, regarding ATO content for 3 h at 37° C. Aqueous and acetate buffered polysorbate 80 solutions were also tested in 15 and 100 μg/mL. PBS and Triton™ X-100 were used as negative and positive controls, respectively, with additional no-blood controls being used due to possible interference of CUR at 540 nm. Following incubation, cell-free supernatants were obtained and any plasma-free haemoglobin and metabolites were converted into cyanmethaemoglobin (CMH), using Drabkin's reagent. The detection of CMH was conducted at 540 nm and the percentage of haemolysis (%) was calculated taking into account the equation 2.

Work on `COc1cc(/C=C/C(=O)CC(=O)/C=C/c2ccc(O)c(OC)c2)ccc1O` [CUR, curcumin] yielded an IC50 ([1]; Homo sapiens, U-87 MG, 24 h of incubation) of 86 ± 35 µM and an IC50 ([1]; Homo sapiens, U-87 MG, 72 h of incubation) of 77 ± 1 µM.
`CC(C)c1c(C(=O)Nc2ccccc2)c(-c2ccccc2)c(-c2ccc(F)cc2)n1CC[C@@H](O)C[C@@H](O)CC(=O)O` [ATO, atorvastatin calcium] was tested, and the IC50 ([1]; 24 h of incubation) was 134 ± 27 µM and the IC50 ([1]; 72 h of incubation) was 25 ± 5 µM.
With Triton™ X-100 the hemolysis [2] was “complete hemolysis”.
